In publication PMC12410356 (International Journal for Parasitology: Drugs and Drug …, 2025):

Experiments:
[1] = system: E. multilocularis metacestode vesicles; assay: Metacestode vesicle viability assay (ATP, CellTiter-Glo); assay type: cell-based, Echinococcus multilocularis
Experimental: Viability was assessed after 12 days using the same metacestode vesicles as for the PGI release assay. Triton X-100 was added to each well to a final concentration of 0.1 %. Subsequently the metacestode vesicles were broken mechanically and 50 μL of the supernatant was mixed with 50 μL of CellTiter-Glo® buffer (Promega, Dübendorf, Switzerland). Measurements were performed on a HIDEX Sense microplate reader.

[2] = system: E. multilocularis metacestode vesicles; assay: Phosphoglucose isomerase (PGI) release assay (damage-marker release) on metacestode vesicles; assay type: cell-based, Echinococcus multilocularis; settings: 10 μM; for PGI d5 (relative PGI release): 5 days; for PGI d12 (relative PGI release): 12 days
[3] = overview screen, 10 μM, singlets, 12 days, relative to DMSO control
[4] = overview screen, singlets, relative to 0.1 % Triton X-100, DMSO subtracted
[5] = confirmation screen, 10 μM, triplicates, mean, 12 days
[6] = confirmation screen, triplicates, mean

Compound	Viability d12 (relative viability) [1, 3] [%]	PGI d5 (relative PGI release) [2, 4] [%]	PGI d12 (relative PGI release) [2, 4] [%]	Viability d12 (relative viability) ([1]; 10 µM) [%]	Viability d12 (relative viability) [1, 5] [%]	PGI d5 (relative PGI release) [2, 6] [%]	PGI d12 (relative PGI release) [2, 6] [%]
Nc1nc(-c2ccccc2)nc2[nH]nc(Nc3ccc(C(F)(F)F)cc3)c12 [MMV1633968]	133.404	0.2239	0.02121				
C[C@@H](c1nc(-c2ccc(C#N)cc2)cs1)[C@](O)(Cn1cncn1)c1ccc(F)cc1F [MMV1634362]		-1.682	-23.6483	103.703			
N#Cc1cc([N+](=O)[O-])ccc1Oc1ccccc1Cl [MMV1580800]	90.6917	1.0953	-9.284				
COc1ccc(CNC(=O)C(NS(=O)(=O)c2ccc3nc(C)sc3c2)C(C)C)cc1 (stereo not drawn) [MMV303733]	97.8993	-2.8306	-9.3435				
Cc1ccc(S(=O)(=O)Nc2cccc3cccnc23)cc1 [MMV233495]	70.919	2.157	26.0665				
Cl.NC1(C(=O)O)CCP(=O)(O)CC1 (stereo not drawn) [MMV1593538]	39.7446	-1.639	-13.1352				
Cn1c2ccccc2c(=O)c2c(O)cccc21 [MMV1580500]	90.8954	1.098	-0.5737				
C[Si]1(C)CCN(Cc2cc(-c3ccc(Cl)cc3)n(-c3ccc(Cl)cc3)n2)CC1 [MMV1580843]	93.6293	-0.6444	-1.571				
Cc1nc(-c2ccc(C3N(C)c4ccc(F)cc4C(=O)N3c3ccccc3)s2)cs1 (stereo not drawn) [MMV1582492]	101.198	-1.6173	-12.6909				
CC1(C)C[C@H]1C(=O)N/C(=C\CCCCSC[C@@H](N)C(=O)O)C(=O)O.[Na+] [MMV1613559]	85.3181	-0.3777	-1.053				
CNC(=O)C1O[C@@H](n2cnc3c(NCc4cccc(I)c4)nc(Cl)nc32)[C@H](O)[C@@H]1O (stereo partly drawn) [MMV1593514]		-0.4087	0.1534	79.1378			
Oc1c(C(Nc2nc3ccccc3s2)c2ccc(OC(F)F)cc2)ccc2cccnc12 (stereo not drawn) [MMV019724]	220.792	0.06264	0.4013				
CN1C(=O)C(c2ccccc2)C(=O)N(c2ccccc2)c2cc(C(F)(F)F)ccc21 (stereo not drawn) [MMV1782208]	97.8548	0.993	-0.2102				
NC(=O)c1c(N)sc2c1CCCCC2 [MMV056052]	78.9817	0.2417	3.2439				
CC(C)N=c1cc2n(-c3ccc(Cl)cc3)c3ccccc3nc-2cc1Nc1ccc(Cl)cc1 [MMV687800]	4.175	10.9227	104.553		142.49	0.81	1.29
Cc1cc(CCOc2c(C)cc(-c3nnn(C)n3)cc2C)on1 [MMV1782349]	107.625	-0.7312	-0.8271				
CCNC(=O)Nc1cc2c(-c3ccnc(C)c3)ccc(CNC(=O)OC)c2cn1 [MMV1634390]	29.4745	1.116	-26.1278				
Nc1c(C(=O)NCc2ccco2)c2nc3ccccc3nc2n1CCN1CCCCC1 [MMV099714]	63.8129	2.984	44.8288				

Compound	Viability d12 (relative viability) [1, 3] [%]	PGI d5 (relative PGI release) [2, 4] [%]	PGI d12 (relative PGI release) [2, 4] [%]	Viability d12 (relative viability) ([1]; 10 µM) [%]	Viability d12 (relative viability) [1, 5] [%]	PGI d5 (relative PGI release) [2, 6] [%]	PGI d12 (relative PGI release) [2, 6] [%]
CN(C)CC(=O)Nc1ccc2[nH]c(=O)c3ccccc3c2c1 [MMV1580480]	169.884	-0.09241	-0.9318				
NC(=S)N/N=C/c1ncccc1N [MMV1580496]	58.7881	-0.2661	1.095				
NC(=O)c1nccn([C@@H]2O[C@H](CO)[C@@H](O)[C@H]2O)c1=O [MMV1782104]	106.79	1.472	-19.2173				
O=[N+]([O-])c1ccc2c(CCc3c[nH]c4ccccc34)c[nH]c2c1 [MMV1593539]	72.058	1.886	90.6206				
CC(=O)N1c2ccccc2NC2=C(C(=O)CC(C)(C)C2)C1c1ccc(OCc2ccccc2)cc1 (stereo not drawn) [MMV1580503]	72.2027	1.18	-18.9728				
O=C(NC12CC3CC(CC(C3)C1)C2)c1cc2ccccc2[nH]1 [MMV1578577]	82.8787	-0.2186	-2.179				
COc1ccc(NS(=O)(=O)c2ccc(Cl)s2)cn1 [MMV1580499]	78.1001	0.09331	-16.9426				
CC(C)Nc1nc2cc(Cl)c(Cl)cc2n1[C@H]1O[C@@H](CO)[C@H](O)[C@@H]1O [MMV1593521]	80.7959	1.092	-0.5297				
CC[C@@H]1C(=O)OC[C@@H]1Cc1cncn1C.Cl [MMV002516]	84.666	-2.121	-7.265				
O=C(c1nc2c(C(F)(F)F)cc(C3CC3)cn2c1Cl)N1CCN([C@H]2CC[C@H](O)CC2)C(=O)C1 [MMV1634396]	113.417	0.0006202	0.1204				
Cc1nc(N(C)C(=O)Cc2ccc(-c3ccccn3)cc2)sc1S(N)(=O)=O [MMV1580486]	136.799	-0.111	0.7043				
O=[N+]([O-])c1cn2c(n1)OC[C@@H](OCc1ccc(OC(F)(F)F)cc1)C2 [MMV688755]	91.4293	-1.0977	-12.4687				
NC(=O)[C@@H]1CC[C@@H]2CN1C(=O)N2OS(=O)(=O)O [MMV1613560]	46.8418	-1.526	-13.4159				
COc1ccc2c(c1)cc(CNC(=O)c1cc3ccccc3o1)n2CC(=O)O [MMV1581553]	73.1434	-2.902	-25.8097				
COc1nc2ccc(Br)cc2cc1[C@@H](c1ccccc1)[C@@](O)(CCN(C)C)c1cccc2ccccc12 [MMV689758]	111.826	-2.925	-4.755				
O=C(Cn1cnc2ccccc2c1=O)Nc1ccccc1 [MMV1578891]	139.913	-0.325	-3.282				
CCc1cc(Cc2cnc(N)nc2N)cc2c1N(C)CCC2C (stereo not drawn) [MMV1582490]	27.4864	9.437	80.495		117.48	0.0536	-0.39
Cc1oncc1C(=O)Nc1ccc(C(F)(F)F)cc1 [MMV003291]		0.3849	-17.479	99.9529			
